These results are taken from patent US10278973B2, “Hydroxyl purine compounds and use thereof” (GUANGDONG RAYNOVENT BIOTECH CO., LTD., priority 2015, dated 2019).

Molecules are shown by their SMILES.

In the first test the target is T1, Full length human PDE2A protease (Homo sapiens, UniProt O00408).
T1 construct: Full length human PDE2A protease; GST (N); host or cells: insect Sf9 cells (baculovirus)
T1 sequence (O00408 whole entry): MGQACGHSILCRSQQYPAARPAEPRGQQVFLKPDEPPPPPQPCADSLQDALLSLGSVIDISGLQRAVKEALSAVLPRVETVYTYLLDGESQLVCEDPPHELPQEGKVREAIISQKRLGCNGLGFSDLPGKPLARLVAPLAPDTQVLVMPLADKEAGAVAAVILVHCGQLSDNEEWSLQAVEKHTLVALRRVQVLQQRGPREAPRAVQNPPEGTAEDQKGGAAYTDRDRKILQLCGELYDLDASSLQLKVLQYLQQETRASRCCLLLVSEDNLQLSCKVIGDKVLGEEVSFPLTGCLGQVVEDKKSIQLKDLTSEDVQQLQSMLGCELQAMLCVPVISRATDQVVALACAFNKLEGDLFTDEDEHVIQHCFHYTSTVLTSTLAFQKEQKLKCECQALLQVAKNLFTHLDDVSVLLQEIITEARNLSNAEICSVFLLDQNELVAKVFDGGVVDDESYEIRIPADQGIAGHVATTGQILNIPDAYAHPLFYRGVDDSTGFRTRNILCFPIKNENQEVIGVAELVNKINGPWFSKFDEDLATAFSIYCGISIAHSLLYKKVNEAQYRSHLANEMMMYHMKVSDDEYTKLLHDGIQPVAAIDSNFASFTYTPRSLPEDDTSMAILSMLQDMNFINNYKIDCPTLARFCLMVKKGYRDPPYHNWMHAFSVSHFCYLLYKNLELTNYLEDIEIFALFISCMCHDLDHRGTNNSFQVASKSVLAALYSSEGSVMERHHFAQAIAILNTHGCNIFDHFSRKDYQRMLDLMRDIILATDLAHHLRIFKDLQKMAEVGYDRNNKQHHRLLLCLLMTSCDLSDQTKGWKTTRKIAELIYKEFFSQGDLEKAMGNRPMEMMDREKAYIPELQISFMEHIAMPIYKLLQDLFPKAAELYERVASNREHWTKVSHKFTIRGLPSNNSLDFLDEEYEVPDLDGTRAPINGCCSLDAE
The experiment in a line: In vitro evaluation of PDE2 phosphodiesterase inhibitory activity (Transcreener AMP2/GMP2 fluorescence polarization). It is filed as biochemical.
Settings: not given
The protocol: In Vitro Evaluation of PDE2 Phosphodiesterase Inhibitory Activity Experimental objectives: To detect the concentration of AMP/GMP produced in the reaction system by measuring the fluorescence intensity of the fluorescent dye AlexaFluor 633 substituted on AMP/GMP antibody and to calculate the PDE2 phosphodiesterase inhibitory IC50 value of the test compound. Test buffer solution: 10 mM Tris-HCl, pH 7.5, 5 mM MgCl2, 0.01% Brij 35, 1 mM DTT, and 1% DMSO. Enzyme: Full length human PDE2A protease expressed and recombined in insect Sf9 cells with baculovirus using N-terminal GST tag […] Transcreener® AMP^2/GMP^2 antibody, AMP2/GMP2 AlexaFluor 633 fluorescent dye The enzyme solution was prepared with freshly prepared buffer solution and then added to the reaction wells. The DMSO solution of the test compound was added by Echo550 non-contact nanoscale sonicate pipetting system and preincubated for 10 minutes at room temperature. The reaction was initiated by addition of substrate (1 μM cGMP) and allowed to react for one hour at room temperature. The detection system (Transcreener® AMP^2/GMP^2 antibody, AMP2/GMP2 AlexaFluor 633 fluorescent dye) was then added and reacted for 90 minutes at room temperature before fluorescence polarization was detected using Ex/Em 620/688. The intensity of fluorescence polarization was converted to nM concentration by the AMP/GMP standard curve and then relative inhibition of enzyme activity relative to DMSO blank was calculated. IC50 values and curves were calculated using the Prism software package (GraphPad Software, San Diego Calif., USA)
(Fluorescence polarisation rises when a labelled molecule tumbles more slowly, as on binding a larger partner.)
Take `COc1ccc(Cn2c(=O)c3c(ncn3C)n(C)c2=O)cn1` [Example 48, 1-((6-Methoxypyridin-3-yl)methyl)-3,7-dimethyl-1H-purine-2,6(3H,7H)-dione]: the IC50 was 10 to 50 µM.

Still in this test, the particulars now being: recombinant full length human PDE2A, substrate 1 μM cGMP, 1 hour at room temperature; read-out: PDE2 phosphodiesterase inhibitory activity.
Consider `Cc1cc(CCCCn2c(=O)c3c(ncn3C)n(C)c2=O)n(C)n1` (single isomer, unassigned) [Example 14 Isomer 1, 1-(4-(1,3-dimethyl-1H-pyrazol-5-yl)butyl)-3,7-dimethyl-1H-purine-2,6(3H,7H)-dione], for which the IC50 was in the range of 10 to 50 µM.

In the case of `Cn1nnnc1CCCCCn1c(=O)c2c(ncn2C)n(C)c1=O` (single isomer, unassigned) [Example 40 Isomer 1, 3,7-Dimethyl-1-(5-(1-methyl-1H-tetrazol-5-yl)pentyl)-1H-purine-(3H,7H)-dione], the IC50 fell in the range of 10 to 50 µM.

As for `Cn1nnc(CCCCCn2c(=O)c3c(ncn3C)n(C)c2=O)n1` (single isomer, unassigned) [Example 40 Isomer 2, 3,7-Dimethyl-1-(5-(1-methyl-2H-tetrazol-5-yl)pentyl)-1H-purine-(3H,7H)-dione], the IC50 was in the range of 10 to 50 µM.

As to `Cc1cc(CCCCn2c(=O)c3c(ncn3C(F)F)n(C)c2=O)on1` (single isomer, unassigned) [Example 49 Isomer 1, 7-(Difluoromethyl)-3-methyl-1-(4-(3-methylisoxazol-5-yl)butyl)-1H-purine-2,6(3H,7H)-dione], the IC50 fell in the range of 10 to 50 µM.

As for `CCc1cc(CCn2c(=O)c3c(ncn3C)n(C)c2=O)nn1C` [Example 11 Product 2, 1-(2-(5-Ethyl-1-methyl-1H-pyrazol-3-yl)ethyl)-3,7-dimethyl-1H-purine-2,6(3H,7H)-dione], the IC50 lay in the range of 10 to 50 µM.

As to `Cc1cc(CCCCn2c(=O)c3c(ncn3C)n(C)c2=O)[nH]n1` [Example 12, 3,7-Dimethyl-1-(4-(3-methyl-1H-pyrazol-5-yl)butyl)-1H-purine-2,6(3H,7H)-dione], the IC50 is 10 to 50 µM.

With `Cc1cc(CCCCn2c(=O)c3c(ncn3C)n(C)c2=O)no1` [Example 20, 3,7-Dimethyl-1-(4-(5-methylisoxazol-3-yl)butyl)-1H-purine-2,6(3H,7H)-dione], the IC50 fell in the range of 10 to 50 µM.

As for `CC(C)c1oncc1Cn1c(=O)c2c(ncn2C)n(C)c1=O` [Example 22, 1-((5-Isopropylisoxazol-4-yl)methyl)-3,7-dimethyl-1H-purine-2,6(3H,7H)-dione], the IC50 was 10 to 50 µM.

With `Cc1cc(CC2CCCC(n3c(=O)c4c(ncn4C)n(C)c3=O)C2)on1` (stereo not shown) [Example 28], the IC50 fell in the range of 1 to 10 µM.

As for `Cc1nc(C)c(Cn2c(=O)c3c(ncn3C)n(C)c2=O)s1` [Example 29, 1-((2,4-Dimethylthiazol-5-yl)methyl)-3,7-dimethyl-1H-purine-2,6(3H,7H)-dione], the IC50 lay in the range of 10 to 50 µM.

As for `Cn1cnc2c1c(=O)n(CCCCc1cn[nH]n1)c(=O)n2C` [Example 34, 1-(4-(2H-1,2,3-triazol-4-yl)butyl)-3,7-dimethyl-1H-purine-2,6(3H,7H)-dione], the IC50 is 10 to 50 µM.

As for `Cn1ncc(CCCCn2c(=O)c3c(ncn3C)n(C)c2=O)n1` [Example 35, 3,7-Dimethyl-1-(4-(2-methyl-2H-1,2,3-triazol-4-yl)butyl)-1H-purine-(3H,7H)-dione], the IC50 lay in the range of 10 to 50 µM.

Take `Cn1cnc2c1c(=O)n(CCCCc1nn[nH]n1)c(=O)n2C` [Example 37, 1-(4-(2H-tetrazol-5-yl)butyl)-3,7-dimethyl-1H-purine-2,6(3H,7H)-dione]: the IC50 fell in the range of 10 to 50 µM.

As for `Cn1nnc(CCCCn2c(=O)c3c(ncn3C)n(C)c2=O)n1` [Example 38 Isomer 1, 3,7-Dimethyl-1-(4-(2-methyl-2H-tetrazol-5-yl)butyl)-1H-purine-(3H,7H)-dione], the IC50 was 10 to 50 µM.

With `Cn1cnc2c1c(=O)n(CCCCCc1nn[nH]n1)c(=O)n2C` [Example 39, 1-(5-(2H-tetrazol-5-yl)pentyl)-3,7-dimethyl-1H-purine-2,6(3H,7H)-dione], the IC50 fell in the range of 10 to 50 µM.

As for `Cn1cnc2c1c(=O)n(CCCc1c[nH]c3ccccc13)c(=O)n2C` [Example 41], the IC50 lay within 1 to 10 µM.

With `Cn1cnc2c1c(=O)n(CCCCc1cc3ccccc3o1)c(=O)n2C` [Example 42, 1-(4-(Benzofuran-2-yl)butyl)-3,7-dimethyl-1H-purine-2,6(3H,7H)-dione], the IC50 lay in the range of 1 to 10 µM.

For the molecule `Cn1cnc2c1c(=O)n(CCCc1nc3ccccc3s1)c(=O)n2C` [Example 43, 1-(3-(Benzo[d]thiazol-2-yl)propyl)-3,7-dimethyl-1H-purine 2,6(3H,7H)-dione], the IC50 lay in the range of 10 to 50 µM.

On to `Cn1cnc2c1c(=O)n(CCCc1[nH]nc3c1CCCC3)c(=O)n2C` [Example 44], for which the IC50 was in the range of 10 to 50 µM.

Take `Cc1cc(-c2ccc(Cn3c(=O)c4c(ncn4C)n(C)c3=O)cc2)on1` [Example 45, 3,7-Dimethyl-1-[4-(3-methylisoxazol-5-yl)-benzyl]-3,7-dihydro-purine-2,6-dione]: the IC50 was in the range of 1 to 10 µM.

With `CCn1cnc2c1c(=O)n(CCCCc1cc(C)no1)c(=O)n2C` [Example 50, 7-Ethyl-3-methyl-1-(4-(3-methylisoxazol-5-yl)butyl)-1H-purine-2,6(3H,7H)-dione], the IC50 is 1 to 10 µM.

For `Cc1cc(CCCCn2c(=O)c3c(ncn3CC(F)(F)F)n(C)c2=O)on1` [Example 51, 3-Methyl-1-(4-(3-methylisoxazol-5-yl)butyl)-7-(2,2,2-trifluoroethyl)-1H-purine-2,6(3H,7H)-dione], the IC50 is 10 to 50 µM.

For `CCCn1cnc2c1c(=O)n(CCCCc1cc(C)no1)c(=O)n2C` [Example 52, 3-Methyl-1-(4-(3-methylisoxazol-5-yl)butyl)-7-propyl-1H-purine-2,6(3H,7H)-dione], the IC50 was in the range of 1 to 10 µM.

`Cc1cc(CCCCn2c(=O)c3c(ncn3C(C)C)n(C)c2=O)on1` [Example 54, 7-Isopropyl-3-methyl-1-(4-(3-methylisoxazol-5-yl)butyl)-1H-purine-2,6(3H,7H)-dione]: the IC50 lay within 10 to 50 µM.

For the molecule `CCCCn1cnc2c1c(=O)n(CCCCc1cc(C)no1)c(=O)n2C` [Example 55, 7-Butyl-3-methyl-1-(4-(3-methylisoxazol-5-yl)butyl)-1H-purine-2,6(3H,7H)-dione], the IC50 fell in the range of 1 to 10 µM.

For `Cc1cc(CCCCn2c(=O)c3c(ncn3CC3CC3)n(C)c2=O)on1` [Example 56, 7-(Cyclopropylmethyl)-3-methyl-1-(4-(3-methylisoxazol-5-yl)butyl)-1H-purine-2,6(3H,7H)-dione], the IC50 is 1 to 10 µM.

In the case of `Cc1noc(C)c1Cn1c(=O)c2c(ncn2CC2CC2)n(C)c1=O` [Example 57, 7-(Cyclopropylmethyl)-1-((3,5-dimethylisoxazol-4-yl)methyl)-3-methyl-1H-purine-2,6-(3H,7H)-dione], the IC50 fell in the range of 1 to 10 µM.

`CC(C)c1oncc1Cn1c(=O)c2c(ncn2CC2CC2)n(C)c1=O` [Example 58]: the IC50 fell in the range of 1 to 10 µM.

Regarding `Cc1cc(CCCCn2c(=O)c3c(ncn3CC(C)C)n(C)c2=O)on1` [Example 60, 7-Isobutyl-3-methyl-1-(4-(3-methylisoxazol-5-yl)butyl)-1H-purine-2,6(3H,7H)-dione], the IC50 is 1 to 10 µM.

For the molecule `Cc1cc(CCCCn2c(=O)c3c(ncn3CC3(C)COC3)n(C)c2=O)on1` [Example 61, 3-Methyl-1-(4-(3-methylisoxazol-5-yl)butyl)-7-((3-methyloxetan-3-yl)methyl)-1H-purine-2,6(3H,7H)-dione], the IC50 is 10 to 50 µM.
